Measured values taken from patent publication US7772230B2, “Chroman compound, processes for its preparation, and its pharmaceutical use” (China Pharmaceutical University, priority 2006, dated 2010).
pIC50: −log10 of the molar value.

How the values were obtained:
[1] = molecular target: T1, rapidly delayed rectifier potassium channel current (IKr) (Cavia porcellus, UniProt O08703); experiment: whole cell patch clamp on isolated Guinea pig myocardial cells, IKr; type: cell-based; details: Guinea pig ventricular myocytes, current recorded 10 min after administration, 25-30° C.
T1 construct: the Guinea pig myocardial cells are separated with enzymolysis; endogenous in cells; host or cells: freshly isolated guinea pig ventricular myocytes
T1 sequence (O08703 1-1294): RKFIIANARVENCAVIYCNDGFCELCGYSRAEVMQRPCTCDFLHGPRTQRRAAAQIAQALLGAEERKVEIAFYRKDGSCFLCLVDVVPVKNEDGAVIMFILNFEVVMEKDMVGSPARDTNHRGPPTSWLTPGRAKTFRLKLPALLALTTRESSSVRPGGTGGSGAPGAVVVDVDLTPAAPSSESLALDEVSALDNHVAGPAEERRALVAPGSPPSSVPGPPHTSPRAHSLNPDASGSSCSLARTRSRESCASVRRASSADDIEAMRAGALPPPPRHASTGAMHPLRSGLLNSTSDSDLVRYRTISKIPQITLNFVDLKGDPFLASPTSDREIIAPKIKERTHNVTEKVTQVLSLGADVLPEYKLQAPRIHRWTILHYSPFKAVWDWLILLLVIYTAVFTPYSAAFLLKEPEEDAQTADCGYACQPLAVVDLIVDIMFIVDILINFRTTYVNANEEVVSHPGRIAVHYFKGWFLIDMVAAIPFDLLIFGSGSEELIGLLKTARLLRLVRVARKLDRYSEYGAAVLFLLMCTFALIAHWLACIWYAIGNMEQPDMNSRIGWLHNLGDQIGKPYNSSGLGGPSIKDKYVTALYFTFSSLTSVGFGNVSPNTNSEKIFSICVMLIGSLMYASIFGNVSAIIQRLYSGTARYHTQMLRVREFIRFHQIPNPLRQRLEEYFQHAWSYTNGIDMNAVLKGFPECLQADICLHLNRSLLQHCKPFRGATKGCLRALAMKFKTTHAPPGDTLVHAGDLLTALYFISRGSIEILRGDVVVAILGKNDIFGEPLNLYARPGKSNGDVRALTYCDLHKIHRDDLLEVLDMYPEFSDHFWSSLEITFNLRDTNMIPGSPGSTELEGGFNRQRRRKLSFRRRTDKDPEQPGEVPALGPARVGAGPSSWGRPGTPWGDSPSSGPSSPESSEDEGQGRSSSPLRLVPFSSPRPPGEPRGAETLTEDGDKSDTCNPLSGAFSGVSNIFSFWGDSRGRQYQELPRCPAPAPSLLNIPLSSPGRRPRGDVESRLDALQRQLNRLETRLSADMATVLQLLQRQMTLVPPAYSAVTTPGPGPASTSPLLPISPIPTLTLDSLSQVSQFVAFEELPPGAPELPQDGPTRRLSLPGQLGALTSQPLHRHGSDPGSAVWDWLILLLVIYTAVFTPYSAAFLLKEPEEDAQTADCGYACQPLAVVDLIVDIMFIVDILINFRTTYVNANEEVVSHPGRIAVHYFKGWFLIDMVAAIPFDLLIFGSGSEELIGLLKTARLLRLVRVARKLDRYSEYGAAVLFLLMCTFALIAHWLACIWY
Protocol: (§1) Experimental title: using vitro pachynsis myocardial cells of Guinea pig, the activity is determined by the whole cell membrane Patch clamp technology.
(§2) experimental mechanism: the Guinea pig myocardial cells are separated with enzymolysis, and the rapid activation component and the slowly activation component of the delayed commutating current in the cardiac muscle cells are recorded by whole cell membrane Patch clamp. Each compound is added to the perfuse liquid for measuring current after dissolved at least 10 min. The collected data is analyzed in pulse-fit, the IC50 value for IKr and IKs of each compound is calculated.
(§3) animals: Guinea pigs, male, weight 300-400 g.
(§4) solution: calcium free Tyrode's solution
(§5) pole inner solution (mmol/L): KCl 140, MgCl2 1.0, K2-ATP 4.0, EGTA 10, HEPES 5.0, pH=7.2
(§6) Experimental apparatus: Patch clamp magnifier (EPC-10, Germany), inverted microscope (TE-2000U, Nikon, Japan), microelectrode puller (PIP5, Germany), micro-manipulator (PCS-5000, Burleigh, USA).
(§7) Then, the hearts are taken off, their ventricle are cut to smash and incubated in fresh enzyme solution at 37° C., the solution is gently stirred for 5-10 min, pouring off the supernatant fluid, diluted with Tyrode's solution containing CaCl2 1 mmol/L, that is for the first cell stored liquor; with the same operation to obtain the second and the third cell storages. […] The cells are laid for 2 h before use.
(§8) the cell liquor is put into the cell pool, after the cells adhering to the wall, they are perfused with outer liquor of the cells at the rate of 2 ml/min, cells that having calcium resistance and clear transverse striations are to be selected, the poles are moved to the cell surface by tridimensional manipulator. The high resistance block are formed between the pole top and the cell surface by under pressure, and more over using reduced pressure to broking cell membrane, the pole inner liquor can be connected to the cell inner liquor so as to form the whole cell state. After the compensation to the capacitance and series impedance compensation the voltage tongs are recorded. The signal is led by Ag/AgCl pole and magnified by the Patch clamp magnifier, the computer dispenses presetting stimulate pulse by procedure and add to cells, and the electrical signal generated from cells is translated by transducer, and stored in computer. All of the stimulate signal control, electric current, data sampling and analyses are carried out by pulse V8.60. Azimilide is used as positive drugs in the research. Each test compound is dissolved in anhydrous ethanol, diluted to the same concentration by water, and added to outer cell liquor, the top concentration of ethanol is 0.1%.
(§9) Stimulate parameter: the record of IKr and IKS: the back value of the either current is recorded. Using extra-cellular fluid containing 0.1 mmol/L CdCl2 for perfusion, sustaining the voltage at −50 mV, depolarized to 60 mV, keeping for 500 ms, and sustaining the voltage at −50 mV, keeping for 1000 ms, recording IKr; and then binding the voltage at −50 mV for 1000 ms, recording IKs.

[2] = molecular target: T2, slowly delayed rectifier potassium channel current (IKs) (Cavia porcellus, UniProt O70344); experiment: whole cell patch clamp on isolated Guinea pig myocardial cells, IKs; type: cell-based; details: Guinea pig ventricular myocytes, current recorded 10 min after administration, 25-30° C.
T2 construct: the Guinea pig myocardial cells are separated with enzymolysis; endogenous in cells; host or cells: freshly isolated guinea pig ventricular myocytes
T2 sequence (O70344 1-671): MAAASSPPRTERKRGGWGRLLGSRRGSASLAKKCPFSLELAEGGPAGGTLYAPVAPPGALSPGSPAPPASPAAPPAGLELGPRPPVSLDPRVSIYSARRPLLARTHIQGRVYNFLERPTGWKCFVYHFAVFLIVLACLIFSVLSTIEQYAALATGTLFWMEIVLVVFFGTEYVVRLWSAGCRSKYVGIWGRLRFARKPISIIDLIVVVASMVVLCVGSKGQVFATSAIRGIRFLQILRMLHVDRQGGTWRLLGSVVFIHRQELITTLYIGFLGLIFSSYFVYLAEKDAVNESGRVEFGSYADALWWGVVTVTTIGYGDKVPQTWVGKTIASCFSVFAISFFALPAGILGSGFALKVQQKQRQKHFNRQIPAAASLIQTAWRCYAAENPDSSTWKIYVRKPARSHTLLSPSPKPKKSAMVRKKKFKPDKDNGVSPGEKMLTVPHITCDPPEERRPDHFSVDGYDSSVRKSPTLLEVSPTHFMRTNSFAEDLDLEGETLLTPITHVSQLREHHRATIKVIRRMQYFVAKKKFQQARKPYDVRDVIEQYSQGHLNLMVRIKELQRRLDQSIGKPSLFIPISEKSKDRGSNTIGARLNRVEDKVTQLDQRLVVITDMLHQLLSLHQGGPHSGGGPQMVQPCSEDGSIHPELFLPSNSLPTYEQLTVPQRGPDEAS
T2 sequence (P41686 1-245 partner): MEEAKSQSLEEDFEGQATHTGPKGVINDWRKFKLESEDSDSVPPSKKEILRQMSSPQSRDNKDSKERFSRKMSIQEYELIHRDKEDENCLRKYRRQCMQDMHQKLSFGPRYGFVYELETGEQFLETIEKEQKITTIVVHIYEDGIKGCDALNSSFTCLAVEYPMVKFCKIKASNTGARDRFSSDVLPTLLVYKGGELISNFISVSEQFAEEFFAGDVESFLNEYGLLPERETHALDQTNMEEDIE
Protocol: as §1, §2, §3, §4, §5, §6, §7, §8, §9

Structure (SMILES) | melting point [°C] | pIC50 [2] | pIC50 [1]
CN1CCN(CCCCN2C(=O)CN(/N=C3\CCOc4ccc(O)cc43)C2=O)CC1.O=C(O)/C=C/C(=O)O | 203 to 205 |  | 
CCOc1ccc2c(c1)/C(=N/N1CC(=O)N(CCCCN3CCN(C)CC3)C1=O)CCO2.O=C(O)/C=C/C(=O)O | 225 to 227 |  | 
Cc1ccc2c(c1)/C(=N/N1CC(=O)N(CCCCN3CCN(C)CC3)C1=O)CCO2.O=C(O)/C=C/C(=O)O | 231 to 233 |  | 
COc1ccc2c(c1)/C(=N/N1CC(=O)N(CCCCN3CCCCC3)C1=O)CCO2 [Ia example 5, 1-[4-(2,3-dihydro-6-methoxy)benzopyran]imino-3-(4-piperidine) butyl-2,4-imidazole dione] |  | 4.66 | 5.13
O=C1CN(/N=C2\CCOc3ccc(Cl)cc32)C(=O)N1CCCCN1CCCCC1 [Ia example 6, 1-[4-(2,3-dihydro-6-chloro)benzopyran]imino-3-(4-piperidine) butyl-2,4-imidazole dione] |  | 4.21 | 8.21
Cc1ccc2c(c1)/C(=N/N1CC(=O)N(CCCCN3CCCCC3)C1=O)CCO2 [Ia example 7, 1-[4-(2,3-dihydro-6-methyl)benzopyran]imino-3-(4-piperidine) butyl-2,4-imidazole dione] |  | 4.72 | 4.66
CN1CCN(CCCN2C(=O)CN(N=C3CCOc4ccc(Cl)cc43)C2=O)CC1 [Ia example 10, 1-[4-(2,3-dihydro-6-chlorine)benzopyran]imino-3-[3-(4-methylpiperazine-1-yl)propyl]-2,4-imidazole dione difumarate] |  | 8.24 | 5.41
CCCCOc1ccc2c(c1)/C(=N/N1CC(=O)N(CCCCN3CCCCC3)C1=O)CCO2 [Ib example 7, 1-[4-(2,3-dihydro-6-butoxy)benzopyran]imino-3-(4-piperidine) butyl-2,4-imidazole dione] |  | 5.99 | 7.76

The next lines start with results.

melting point [°C] | pIC50 [2] | Structure (SMILES) | pIC50 [1]
208 to 210 | 6.19 | COc1ccc2c(c1)/C(=N/N1CC(=O)N(CCCCN3CCN(C)CC3)C1=O)CCO2.O=C(O)/C=C/C(=O)O [Ia example 1, 1-[4-(2,3-dihydro-6-methoxy)benzopyran]imino-3-[4-(methyl-1-piperazine)butyl]-2,4-imidazole dione difumarate] | 6.00
230 to 232 | 7.14 | CN1CCN(CCCCN2C(=O)CN(/N=C3\CCOc4ccc(Cl)cc43)C2=O)CC1.O=C(O)/C=C/C(=O)O [Ia example 2, 1-[4-(2,3-dihydro-6-chloro)benzopyran]imino-3-[4-(methyl-1-piperazine)butyl]-2,4-imidazole dione difumarate] | 5.33
192 to 194 | 6.48 | CN1CCN(CCCCN2C(=O)CN(/N=C3\CCOc4ccc(C(N)=O)cc43)C2=O)CC1.O=C(O)/C=C/C(=O)O [Ia example 4, 1-[4-(2,3-dihydro-6-carbamoyl)benzopyran]imino-3-[4-(methyl-1-piperazine)butyl]-2,4-imidazole dione difumarate] | 6.35
 | 8.72 | COc1ccc2c(c1)/C(=N/N1CC(=O)N(CCCN3CCN(C)CC3)C1=O)CCO2 [Ia example 8, 1-[4-(2,3-dihydro-6-methoxy)benzopyran]imino-3-[3-(4-methylpiperazine-1-yl)propyl]-2,4-imidazole dione difumarate] | 6.27
 | 6.52 | Cc1ccc2c(c1)/C(=N/N1CC(=O)N(CCCN3CCN(C)CC3)C1=O)CCO2 [Ia example 9, 1-[4-(2,3-dihydro-6-methyl)benzopyran]imino-3-[3-(4-methylpiperazine-1-)propyl]-2,4-imidazole dione difumarate] | 6.21
 | 5.98 | CCOc1ccc2c(c1)/C(=N/N1CC(=O)N(CCCCN3CCCCC3)C1=O)CCO2 [Ib example 5, 1-[4-(2,3-dihydro-6-ethoxy)benzopyran]imino-3-(4-piperidine) butyl-2,4-imidazole dione] | 6.35
 | 8.49 | CCCOc1ccc2c(c1)/C(=N/N1CC(=O)N(CCCCN3CCCCC3)C1=O)CCO2 [Ib example 6, 1-[4-(2,3-dihydro-6-propoxy-)benzopyran]imino-3-(4-piperidine) butyl-2,4-imidazole dione] | 6.40
 | 7.57 | CCOc1ccc2c(c1)/C(=N/N1CC(=O)N(CCCN3CCN(C)CC3)C1=O)CCO2 [Ib example 9, 1-[4-(2,3-dihydro-6-ethoxy)benzopyran]imino-3-[3-(4-methylpiperazine-1-yl)propyl]-2,4-imidazole dione difumarate] | 5.36
 | 8.02 | CCCOc1ccc2c(c1)/C(=N/N1CC(=O)N(CCCN3CCN(C)CC3)C1=O)CCO2 [Ib example 10, 1-[4-(2,3-dihydro-6-propoxy-)benzopyran]imino-3-[3-(4-methylpiperazine-1-yl)propyl]-2,4-imidazole dione difumarate] | 6.97
